One data set concerns the target Cytochrome P450 2C19 (Homo sapiens, UniProt P33261). The experiment in a line: Cytochrome panel assay with activity outcomes. Panel member name: p450-cyp2c19 Compounds with AC50 equal or less than 10 uM are considered active. Type of data set: functional.
The next data set addresses Cytochrome P450 2C9 (Homo sapiens, UniProt P11712).
In data set [1] the test system is Streptococcus sp. 'group A'. The experiment in a line: growth inhibition of control SK(-) GAS strain, dose response, counter-screen for streptokinase expression inhibitor project, luminescence, kanamycin, BacTiterGlo, confirmation (AID 1900). Type of data set: functional, organism-based. (A counterscreen serves to expose hits that act by an unwanted route or on another target.)

In a further data set the target is T1, Streptokinase A (Streptococcus pyogenes serotype M1, UniProt P10520).
T1 sequence (P10520 whole entry): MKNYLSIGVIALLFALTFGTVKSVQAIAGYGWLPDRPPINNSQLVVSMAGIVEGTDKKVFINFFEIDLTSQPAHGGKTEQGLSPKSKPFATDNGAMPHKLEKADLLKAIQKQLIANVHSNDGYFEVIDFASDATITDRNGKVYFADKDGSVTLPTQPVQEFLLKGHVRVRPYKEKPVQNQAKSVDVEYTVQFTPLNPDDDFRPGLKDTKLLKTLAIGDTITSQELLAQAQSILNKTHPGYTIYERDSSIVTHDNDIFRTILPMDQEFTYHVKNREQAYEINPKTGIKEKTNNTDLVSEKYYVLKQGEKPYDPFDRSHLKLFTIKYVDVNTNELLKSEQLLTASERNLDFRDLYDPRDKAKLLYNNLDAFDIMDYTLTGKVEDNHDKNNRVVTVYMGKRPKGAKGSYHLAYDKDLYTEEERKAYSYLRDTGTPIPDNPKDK
The experiment in a line: S. pyogenes streptokinase expression inhibitors, potency, dose response, plasminogen activation absorbance, OD405 (AID 1914).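 Also: secreted streptokinase activity via plasminogen activation per viability signal from cell pellet.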 It counts as functional, Streptococcus pyogenes M1 GAS.

For a further data set, the system named is Streptococcus. The experiment in a line: Group A Streptococcus viability loss, dose response, counter-screen for streptokinase expression inhibitor project, luminescence, BacTiterGlo (AID 1915).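 Also: potency for reduction of bacterial viability or growth.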 Type of data set: functional, organism-based.
The target of the next data set is Cytochrome P450 3A4 (Homo sapiens, UniProt P08684).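 Also: CYP3A4 tested as one member of a cytochrome P450 panel screen.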
Cytochrome P450 3A4, sequence (P08684 whole entry): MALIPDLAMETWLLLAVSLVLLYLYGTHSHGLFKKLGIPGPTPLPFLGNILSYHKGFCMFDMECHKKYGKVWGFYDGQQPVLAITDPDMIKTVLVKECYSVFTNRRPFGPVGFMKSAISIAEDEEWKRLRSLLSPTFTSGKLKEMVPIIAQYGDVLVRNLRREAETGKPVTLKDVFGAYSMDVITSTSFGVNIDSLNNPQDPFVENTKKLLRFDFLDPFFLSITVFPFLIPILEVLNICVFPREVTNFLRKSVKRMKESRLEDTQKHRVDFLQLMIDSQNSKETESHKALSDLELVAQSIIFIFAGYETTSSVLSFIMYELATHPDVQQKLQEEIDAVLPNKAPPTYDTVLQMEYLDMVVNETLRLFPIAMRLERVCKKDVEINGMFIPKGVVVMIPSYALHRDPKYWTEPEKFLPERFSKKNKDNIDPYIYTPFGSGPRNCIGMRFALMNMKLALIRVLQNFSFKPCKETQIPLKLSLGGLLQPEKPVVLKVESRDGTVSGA
Data set [2] addresses T2, Corticotropin-releasing factor receptor 2/Corticotropin-releasing factor-binding protein (Homo sapiens, UniProt P24387+Q13324).
T2 sequence (Q13324 whole entry): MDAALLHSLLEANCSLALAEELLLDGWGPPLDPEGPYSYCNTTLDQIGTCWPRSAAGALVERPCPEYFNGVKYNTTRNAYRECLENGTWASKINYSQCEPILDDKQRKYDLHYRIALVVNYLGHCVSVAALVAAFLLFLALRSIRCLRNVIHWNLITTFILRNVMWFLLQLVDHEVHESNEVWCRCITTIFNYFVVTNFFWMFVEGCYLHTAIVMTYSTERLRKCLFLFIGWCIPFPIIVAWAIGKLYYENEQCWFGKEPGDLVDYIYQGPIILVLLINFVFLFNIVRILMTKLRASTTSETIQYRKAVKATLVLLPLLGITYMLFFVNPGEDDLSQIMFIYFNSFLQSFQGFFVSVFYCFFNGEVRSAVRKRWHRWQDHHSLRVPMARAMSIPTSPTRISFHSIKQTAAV
T2 sequence (P24387 whole entry): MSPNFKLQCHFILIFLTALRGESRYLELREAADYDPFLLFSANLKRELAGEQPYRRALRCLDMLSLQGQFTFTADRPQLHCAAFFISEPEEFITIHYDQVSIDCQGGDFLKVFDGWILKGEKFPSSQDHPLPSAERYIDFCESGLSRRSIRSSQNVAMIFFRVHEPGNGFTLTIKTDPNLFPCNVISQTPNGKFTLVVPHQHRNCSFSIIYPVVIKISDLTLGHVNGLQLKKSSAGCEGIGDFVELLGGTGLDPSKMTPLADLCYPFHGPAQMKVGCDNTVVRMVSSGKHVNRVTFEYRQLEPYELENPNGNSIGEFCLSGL
The experiment in a line: activators of CRF receptor 2 with binding protein – uHTS hits, confirmation (AID 602473). It counts as functional. Particulars: read-out: EC50_Mean.

A short description of data set [3]: inhibitors of intracellular T. cruzi replication, confirmation, NIH3T3 host cells, beta-gal luminescence (AID 2044).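 Also: intracellular parasites grown in NIH/3T3 mouse fibroblasts as host cells; luminescent beta-galactosidase reporter signal from transgenic T. cruzi replicating inside host cells; inhibitors lower the luminescence signal.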 It counts as functional, cell-based.
A short description of data set [4]: cytotoxicity toward NIH3T3 fibroblasts, dose response, counter-screen, cell-based, ATP luminescence, mouse fibroblasts (AID 2010).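 Also: cells exposed to compound for about 90 hours before reading.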 Type of data set: functional.
A short description of data set [5]: Luminescence Cell-Based Dose Retest to Confirm Inhibitors of Cancer Stem Cells. [Related pubchem assays (depositor defined):AID2717, AID2721]. Type of data set: functional. Particulars: Homo sapiens.

The source made the active and inactive calls.

Cytochrome P450 2C9, sequence (P11712 whole entry): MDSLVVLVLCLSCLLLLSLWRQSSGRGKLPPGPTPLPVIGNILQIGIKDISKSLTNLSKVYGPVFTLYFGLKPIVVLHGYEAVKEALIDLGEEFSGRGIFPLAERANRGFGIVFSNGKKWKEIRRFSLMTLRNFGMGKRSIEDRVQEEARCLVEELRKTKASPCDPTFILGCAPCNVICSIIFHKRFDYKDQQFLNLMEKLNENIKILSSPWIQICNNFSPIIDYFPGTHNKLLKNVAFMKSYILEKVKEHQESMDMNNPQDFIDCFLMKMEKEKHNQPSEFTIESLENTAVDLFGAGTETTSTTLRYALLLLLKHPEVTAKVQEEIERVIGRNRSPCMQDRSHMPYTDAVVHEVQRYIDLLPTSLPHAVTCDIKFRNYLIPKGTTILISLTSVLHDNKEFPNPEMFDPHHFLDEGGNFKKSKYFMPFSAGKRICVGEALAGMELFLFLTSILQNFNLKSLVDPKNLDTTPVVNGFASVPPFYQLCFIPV
Cytochrome P450 2C19, sequence (P33261 whole entry): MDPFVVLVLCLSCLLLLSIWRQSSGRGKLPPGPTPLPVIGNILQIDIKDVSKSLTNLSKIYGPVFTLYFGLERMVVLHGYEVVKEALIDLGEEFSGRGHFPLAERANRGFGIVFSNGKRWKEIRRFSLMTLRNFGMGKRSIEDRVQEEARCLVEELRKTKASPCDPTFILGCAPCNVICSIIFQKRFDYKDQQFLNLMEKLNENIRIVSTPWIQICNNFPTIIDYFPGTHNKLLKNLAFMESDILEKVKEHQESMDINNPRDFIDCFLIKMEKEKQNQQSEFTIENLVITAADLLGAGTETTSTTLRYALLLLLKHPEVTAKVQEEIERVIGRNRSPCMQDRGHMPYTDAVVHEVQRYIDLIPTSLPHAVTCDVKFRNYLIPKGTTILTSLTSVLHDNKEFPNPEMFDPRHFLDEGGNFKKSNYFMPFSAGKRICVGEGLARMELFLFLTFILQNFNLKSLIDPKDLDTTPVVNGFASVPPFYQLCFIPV

For orientation: AC50 means the concentration at which the activity in the assay is half-maximal. For the compound `O=C(COc1ccc([N+](=O)[O-])cc1)NCc1ccccc1`, the AC50 at Cytochrome P450 2C19 (read-out: AC50) was 7.94 µM (inconclusive); on Cytochrome P450 2C9, 17.8 µM (inconclusive).

`Cc1cc(C)c2c(C(C)(C)C)nn(-c3ccccc3)c2n1`: the EC50 in [1] is 15.1 µM (active); at Streptokinase A it was 30.2 µM (active); with Streptococcus it was 15.7 µM (active).

Take `CCOC(=O)c1c(C)n(C)c2ccc(OC(=O)c3ccco3)cc12`: the half-maximal activity concentration (AC50) on Cytochrome P450 2C9 is 1.12 µM (inconclusive).

Turning to `CC(C)NC[C@@H](O)c1ccc(O)c2ncccc12`, the AC50 entry on Cytochrome P450 2C19 is listed as “inconclusive”.

For the compound `COc1ccc(CN2CCc3ccc(NC(=O)c4ccncc4)cc3C2)c(F)c1`, the EC50 (in data set [1]; on Streptokinase A; in the data set with Streptococcus) was > 150 µM (not active) throughout.

Regarding `Cn1c(SCC(=O)NC2CC2)nnc1-c1cccc(NC(=O)c2ccccc2F)c1`, the AC50 on Cytochrome P450 2C9 was 17.8 µM (inconclusive).

Take `Cc1cc(=O)oc2c3c(cc(OCC(=O)NC4CC4)c12)OC(C)(C)CC3`: the EC50 (in data set [1]; on Streptokinase A; with Streptococcus) was > 150 µM (not active) in each case.

`O=c1cnc2cncnc2n1Cc1ccc(F)cc1`: the values for the AC50 at Cytochrome P450 2C19 (read-out: AC50) and at Cytochrome P450 3A4 were 39.8 µM (inconclusive) and 20 µM (inconclusive), respectively.

On to `CCC1(C)Cc2ccccc2-c2nc(-c3ccccc3)oc(=O)c21` (configuration not stated), for which the EC50 in [1] is 14 µM (active); on Streptokinase A, 13.2 µM (active); in the data set on Streptococcus, > 150 µM (not active).

On to `CCN1CN=C(S)N(c2cc(C)ccc2C)C1`, for which the AC50 at Cytochrome P450 2C19 (read-out: AC50) was 39.8 µM (inconclusive); at Cytochrome P450 3A4, 20 µM (inconclusive).

With `Cc1ccsc1C1C=C(c2cccc(Br)c2)Nc2ncnn21` (configuration not stated), the EC50 in data set [1] was 7.49 µM (active); at Streptokinase A, > 150 µM (not active); in the data set with Streptococcus, > 150 µM (not active).

Turning to `O=C(/C=C/c1ccccc1)NCCc1ccccc1`, the EC50 was > 150 µM (not active) in data set [1], 48.7 µM (active) at Streptokinase A and > 150 µM (not active) in the data set on Streptococcus.

As for `Cc1cc(S(=O)(=O)c2cc3ccc(O)c(C)c3oc2=O)ccc1F`, the EC50 in data set [2] was 5.8 µM (active).

With `CC(C)(C)C(=O)Nc1cccc(-c2nc3ccccc3c(=O)o2)c1`, the values for the half-maximal activity concentration (AC50) on Cytochrome P450 2C19 (read-out: AC50) and on Cytochrome P450 3A4 were 35.5 µM (inconclusive) and 25.1 µM (inconclusive), respectively.

Turning to `CC(C)(C)C1CCc2c(C(=O)N/N=C/c3cccs3)csc2C1` (configuration not stated), the AC50 at Cytochrome P450 2C9 was 7.94 µM (inconclusive).

Take `COC(=O)c1ccccc1OCC(=O)N1CCN(c2ccc(OC)cc2)CC1`: at Cytochrome P450 2C9, the half-maximal activity concentration (AC50) was 17.8 µM (inconclusive).

Regarding `CC(=O)Nc1cccc(C(=O)OCc2ccc(C(=O)Oc3ccc(Cl)cc3)cc2)c1`, the AC50 on Cytochrome P450 2C9 was 1.12 µM (inconclusive).

Regarding `C=CCNC(=O)CC(=O)N/N=C/c1cccc(Br)c1`, the AC50 on Cytochrome P450 2C19 (read-out: AC50) was 0.2 µM (inconclusive).

For the compound `O=C(O)C1CCCN1C(=O)OCc1ccccc1` (configuration not stated), the half-maximal activity concentration (AC50) at Cytochrome P450 2C19 (read-out: AC50) is 15.8 µM (inconclusive).

In the case of `CCOc1ccc(-c2nnc3ccc(SC(C)C)nn23)cc1`, the EC50 was 2.79 µM (active) in data set [1], > 150 µM (not active) at Streptokinase A and 22.9 µM (active) in the data set with Streptococcus.

With `O=C(Nc1cccnc1)c1ccc2snnc2c1`, the figures for the AC50 at Cytochrome P450 2C19 (read-out: AC50) and at Cytochrome P450 2C9 were 17.8 µM (inconclusive) and 25.1 µM (inconclusive), respectively.

`CCC(C(=O)Nc1ccc(C(C)C)cc1)c1ccccc1` (configuration not stated): the EC50 in data set [2] was 6.87 µM (active).

Take `CC(C)Oc1ccc(C(=O)Nc2nnc(C3=COCCO3)o2)cc1`: the EC50 was 0.766 µM (active) in [1], > 150 µM (not active) on Streptokinase A and 14.8 µM (active) with Streptococcus.

Take `CS(=O)(=O)Nc1cccc(-c2ccc3ncnc(NC4CC4)c3c2)c1`: on Cytochrome P450 2C19, the AC50 entry is recorded as “inconclusive”.

As for `O=C(/C=C/c1ccccc1)NC(NC(=S)Nc1cccc(Cl)c1)C(Cl)(Cl)Cl` (configuration not stated), the EC50 was 3.62 µM (active) in [1]; > 150 µM (not active) on Streptokinase A; 1.68 µM (active) in [3]; > 60 µM (inconclusive) in [4]; 6.3 µM (active) in the data set on Streptococcus.

`COC(=O)c1[nH]c(C)c(C(=O)C2=C(O)C(=O)N(CCN(C)C)C2c2cccs2)c1C` (configuration not stated): at Cytochrome P450 2C19 (read-out: AC50), the AC50 was 14.1 µM (inconclusive).

`Cc1nnc(SCC2=C(C(=O)O)N3C(=O)C(NC(=O)c4cc(F)c(F)cc4Cl)C3SC2)s1` (configuration not stated): the values for the EC50 (in [1]; at Streptokinase A; in the data set with Streptococcus) were 0.515 µM (active), > 150 µM (not active) and 0.815 µM (active), respectively.

On to `O=C(CN1CCCC1)Nc1ccc(NC(=O)Nc2ccccc2)cc1`, for which the EC50 (in [1]; on Streptokinase A; in the data set with Streptococcus) was > 150 µM (not active) each time.

In the case of `O=c1c(-c2ccc(F)c(F)c2)nc2cncnc2n1-c1ccccc1`, the AC50 at Cytochrome P450 3A4 is 20 µM (inconclusive); at Cytochrome P450 2C9, 15.8 µM (inconclusive).

For `COC(=O)c1ccc(C(=O)OC)c(NC(=O)CN(C)Cc2cccc(Cl)c2Cl)c1`, the EC50 in [1] is 11.2 µM (active); on Streptokinase A, 13.9 µM (active); in the data set with Streptococcus, > 150 µM (not active).

Turning to `COc1ccc(C)cc1NC(=O)CNC(c1ccccc1)c1ccccc1`, the EC50 in data set [1] was 28.9 µM (active); at Streptokinase A, > 150 µM (not active); in the data set on Streptococcus, 96.1 µM (active).

For `O=S1(=O)[C@@H](c2ccccc2)[C@H](N2CCCCC2)[C@H]1[C@H]1C[C@H]2c3ccccc3[C@@H]1c1ccccc12`, at Cytochrome P450 2C9, the AC50 was 7.94 µM (inconclusive).

`O=C(O)c1ccccc1C(=O)NCc1ccc(F)cc1`: on Cytochrome P450 2C19 (read-out: AC50), the concentration at half-maximal activity (AC50) is 28.2 µM (inconclusive).

For the compound `CS(=O)(=O)Nc1ccc(Cc2noc(-c3ccc4[nH]cc(CCN)c4c3)n2)cc1` [L-694247], the half-maximal activity concentration (AC50) at Cytochrome P450 2C9 is 31.6 µM (inconclusive).

With `C[C@H]1C2=C3C(CC[C@H]4C(OCc5ccc(F)cc5C(F)(F)F)OC[C@](C)([C@@H]34)N(C(=O)OC(C)(C)C)C2)C(CO)C1CO` (some centres not stated), the AC50 at Cytochrome P450 2C19 (read-out: AC50) and at Cytochrome P450 2C9 was 39.8 µM (inconclusive) each time.

As for `O=C(CN1c2ccccc2Sc2ccccc21)NNC(=O)Nc1ccc(Cl)c(Cl)c1`, the figures for the EC50 (in [1]; at Streptokinase A; with Streptococcus) were 2.45 µM (active), > 150 µM (not active) and 5.49 µM (active), respectively. For the same compound, the AC50 in data set [5] is 3.05 µM (active).

Turning to `O=C1C[C@H](c2ccccc2)[C@@H](c2ccc(Br)cc2)O1`, the AC50 on Cytochrome P450 2C9 was 3.16 µM (inconclusive).

Turning to `COCCn1c(=O)c(-c2ccc(F)cc2)nc2cnc(Oc3ccccc3)nc21`, the values for the half-maximal activity concentration (AC50) on Cytochrome P450 3A4 and at Cytochrome P450 2C9 were 15.8 µM (inconclusive) and 10 µM (inconclusive), respectively.

On to `COc1ccc2oc(-c3ccc(C)c(NC(=O)c4ccc(N5CCOCC5)c([N+](=O)[O-])c4)c3)nc2c1`, for which the AC50 on Cytochrome P450 2C19 (read-out: AC50) was 5.62 µM (inconclusive); at Cytochrome P450 2C9, 3.16 µM (inconclusive).

As to `Cc1nn(CC(=O)Nc2c(F)c(F)cc(F)c2F)c(=O)c2cccn12`, the EC50 (in data set [1]; at Streptokinase A; in the data set on Streptococcus) was > 150 µM (not active) each time.

Values taken from ChEMBL document CHEMBL1201862, “PubChem BioAssay data set” (2004).
